Measured values: US20210322785A1, “COMPOSITIONS AND METHODS FOR TREATING WOUNDS” (C.P. MEDICAL CORPORATION, priority 2018, published 2021)

How the values were obtained:
[1] = Drug elution from polymer into PBS at 37° C.; format: physicochemical; settings: within the first three days; polymer prepared with Nolvasan, 2% chlorhexidine dose (50 mg); PBS 37° C.
Protocol: A Thermo Scientific GENESYS 10S UV-Vis spectrophotometer was used to quantify the release of various drugs from several polymers. First, the reference drug or drug solution was dissolved in an appropriate solvent. Typically, phosphate buffered saline (PBS), ethanol or dimethylsulfoxide (DMSO) were used as the solvent. Next, the optimal absorption peak for identifying and quantifying the drug was determined by performing a scan of the drug solution between 200 and 1000 nm. With the absorption peak selected, a reference curve was established by measuring the peak absorbance for various concentrations of the drug. […]
Elution samples were collected daily by decanting the PBS solution from the polymer. The volume of sample collected was recorded. […] The elution sample was analyzed by first diluting the sample in the appropriate solvent using analytical pipettes such that the measured absorbance was in the range determined by the reference curve. The dilution factor was recorded. The drug concentration was calculated from the measured absorbance via the reference curve and the dilution factor. The drug amount was calculated by multiplying the drug concentration with the sample volume. The percent elution for that day was calculated by dividing the drug amount by the total amount of drug administered. […]

[2] = Hydrogel surface spread test; format: physicochemical; set-up: key: 1: no spreading, tight drops that stay in place; 2: mild spreading, drops drip slowly down; 3: severe spreading, drops completely wet surface; settings: drop from 22 gauge needle on 97.5% water hydrogel surface, incline about 30°
Protocol: To model the performance of the polymer solutions on a hydrophilic surface the extent of spreading and dripping of droplets on a high water content biocompatible hydrogel polymer matrix surface at an incline of about 30° was recorded. […] The solution was stirred with a spatula for 10 to 20 seconds and allowed to gel, which typically took 5 to 10 minutes. The water content of the resulting polymer was 97.5%.
The test was performed by first preparing the polymer solution in the usual fashion. After thorough mixing, the polymer solution was dispensed dropwise through a 22 gauge needle onto the biocompatible biocompatible hydrogel polymer matrix surface. The results are shown in Table 9B and were divided into three general categories: 1) no spreading, tight drops that stay in place; 2) mild spreading, drops drip slowly down; 3) severe spreading, drops completely wet surface. Water is in category 3.

| Molecule | chlorhexidine released from polymer [1] | hydrogel surface spread test category [2] |
| --- | --- | --- |
| [H]/N=C(\N/C(=N/[H])NCCCCCCNC(=N)NC(=N)Nc1ccc(Cl)cc1)Nc1ccc(Cl)cc1 [chlorhexidine] | Almost half |  |
| Water |  | 3 |
